The values below come from patent publication US20170037028A1 (BAYER PHARMA AKTIENGESELLSCHAFT, priority 2013, published 2017).

pIC50: −log10 of the molar value.

This experiment concerns the target T1, GLUT1 (Homo sapiens, UniProt P11166).
T1 sequence (P11166 1-492): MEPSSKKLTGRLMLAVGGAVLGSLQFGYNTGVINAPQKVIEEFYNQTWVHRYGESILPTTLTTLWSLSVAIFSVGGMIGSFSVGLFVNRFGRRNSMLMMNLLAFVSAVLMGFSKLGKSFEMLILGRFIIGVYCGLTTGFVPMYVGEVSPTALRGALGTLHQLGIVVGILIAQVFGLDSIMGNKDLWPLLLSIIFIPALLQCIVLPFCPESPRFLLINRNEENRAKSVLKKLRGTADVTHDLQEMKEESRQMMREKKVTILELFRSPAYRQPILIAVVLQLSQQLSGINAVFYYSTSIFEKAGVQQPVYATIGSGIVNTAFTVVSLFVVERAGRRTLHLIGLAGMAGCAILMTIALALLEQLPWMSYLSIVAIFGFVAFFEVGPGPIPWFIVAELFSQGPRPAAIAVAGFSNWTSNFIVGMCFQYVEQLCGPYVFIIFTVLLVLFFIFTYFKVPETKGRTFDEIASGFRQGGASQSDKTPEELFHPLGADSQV
Nature of the experiment: Indirect measurement of GLUT1 activity by quantification of intracellular ATP levels (glucose induced ATP increase). The class given is cell-based. Set-up: endogenous in cells; host or cells: DLD1 or CHO-K1. As to conditions: read-out: IC50 regarding glucose induced ATP increase (GLUT1 inhibition). The method, boiled down:
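Intracellular ATP was measured by CellTiter-Glo luminescence as an indirect readout of transport: glucose-driven for GLUT1, fructose-driven for GLUT2. DLD1 or CHO-K1 cells were used alongside an oxidative phosphorylation inhibitor. Beforehand, cells were held overnight in glucose-free 1% FCS medium to deplete ATP.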
`Cc1nn(Cc2ncco2)c(C)c1NC(=O)c1cc(C(F)(F)F)nc2ccc(Br)cc12` [Example 1506]: the pIC50 was 7.45.

For `COCc1noc(Cn2nc(C)c(NC(=O)c3cc(C(F)(F)F)nc4ccc(Br)cc34)c2C)n1` [Example 1507], the negative logarithm of the IC50 (pIC50) was 6.15.

In the case of `COCc1noc(Cn2nc(C)c(NC(=O)c3cc(C(N)=O)nc4ccccc34)c2C)n1` [Example 1508], the negative-log IC50 (pIC50) is 6.97.

Take `CNC(=O)c1nc(Cn2nc(C)c(NC(=O)c3cc(C(N)=O)nc4ccccc34)c2C)no1` [Example 1509]: the negative logarithm of the IC50 (pIC50) was 7.79.

On to `CCCS(=O)(=O)N1CCC(Cn2nc(C)c(NC(=O)c3cc(C(N)=O)nc4ccccc34)c2C)CC1` [Example 1510], for which the negative logarithm of the IC50 (pIC50) is 7.70.

As to `CCCCS(=O)(=O)N1CCC(Cn2nc(C)c(NC(=O)c3cc(C(N)=O)nc4ccccc34)c2C)CC1` [Example 1511], the pIC50 was 7.50.

With `Cc1nn(CC2CCN(S(=O)(=O)CCCC#N)CC2)c(C)c1NC(=O)c1cc(C(N)=O)nc2ccccc12` [Example 1512], the negative-log IC50 (pIC50) was 6.98.

Regarding `COCCCS(=O)(=O)N1CCC(Cn2nc(C)c(NC(=O)c3cc(C(N)=O)nc4ccccc34)c2C)CC1` [Example 1513], the negative logarithm of the IC50 (pIC50) is 7.22.

As for `Cc1nn(CC2CCN(S(=O)(=O)c3cccnc3)CC2)c(C)c1NC(=O)c1cc(C(N)=O)nc2ccccc12` [Example 1514], the pIC50 was 6.31.

Regarding `Cc1nonc1Cn1nc(C)c(NC(=O)c2cc(C(N)=O)nc3ccccc23)c1C` [Example 1515], the pIC50 was 6.50.

Regarding `Cc1nn(CC2CCN(S(=O)(=O)C3CC3)CC2)c(C)c1NC(=O)c1cc(C(N)=O)nc2ccccc12` [Example 1516], the pIC50 is 7.58.

In the case of `Cc1nn(CC2CCN(S(=O)(=O)C(C)C)CC2)c(C)c1NC(=O)c1cc(C(N)=O)nc2ccccc12` [Example 1517], the pIC50 is 7.01.

On to `Cc1nn(CC2CCN(S(=O)(=O)C3CCCC3)CC2)c(C)c1NC(=O)c1cc(C(N)=O)nc2ccccc12` [Example 1518], for which the pIC50 was 7.16.

For the compound `Cc1nn(CC2CCN(S(=O)(=O)c3ccccc3)CC2)c(C)c1NC(=O)c1cc(C(N)=O)nc2ccccc12` [Example 1519], the negative-log IC50 (pIC50) is 6.19.

For the compound `Cc1nonc1Cn1nc(C)c(NC(=O)c2cc(C(F)(F)F)nc3ccc(Br)cc23)c1C` [Example 1520], the pIC50 is 6.13.

Regarding `Cc1nn(Cc2noc(C(=O)N(C)C)n2)c(C)c1NC(=O)c1cc(C(N)=O)nc2ccccc12` [Example 1521], the pIC50 is 5.78.

`Cc1nn(Cc2noc(C(=O)N(C)C)n2)c(C)c1NC(=O)c1cc(C(F)(F)F)nc2ccc(Br)cc12` [Example 1522]: the negative-log IC50 (pIC50) was 6.22.

In the case of `Cc1nn(Cc2nccn2C)c(C)c1NC(=O)c1cc(C(N)=O)nc2ccccc12` [Example 1523], the pIC50 was 5.38.

Consider `Cc1nn(Cc2nccn2C)c(C)c1NC(=O)c1cc(C(F)(F)F)nc2ccc(Br)cc12` [Example 1524], for which the pIC50 is 5.69.

Take `COc1cc(C(=O)Nc2c(C)nn(CC3CNC(=O)O3)c2C)c2ccccc2n1` (stereo not drawn) [Example 1525]: the pIC50 is 5.32.

For `COc1cc(C(=O)Nc2c(C)nn(Cc3ccn(C)n3)c2C)c2ccccc2n1` [Example 1526], the pIC50 was 6.25.

As for `COc1cc(C(=O)Nc2c(C)nn(Cc3cn4ccccc4n3)c2C)c2ccccc2n1` [Example 1527], the pIC50 was 6.64.

Turning to `Cc1nn(Cc2cn3ccccc3n2)c(C)c1NC(=O)c1cc(C(F)(F)F)nc2ccc(Br)cc12` [Example 1528], the pIC50 was 7.23.

Regarding `Cc1c(NC(=O)c2cc(C(N)=O)nc3cc(F)ccc23)c(C(F)(F)F)nn1Cc1ncco1` [Example 1529], the negative-log IC50 (pIC50) is 6.40.

For `COc1cc(C(=O)Nc2c(C)nn(Cc3csc(N4CCOCC4)n3)c2C)c2ccccc2n1` [Example 1530], the negative logarithm of the IC50 (pIC50) was 6.05.

As to `CCc1cc(Cn2nc(C)c(NC(=O)c3cc(C(N)=O)nc4ccccc34)c2C)on1` [Example 1531], the negative logarithm of the IC50 (pIC50) is 7.42.

Turning to `CCc1cc(Cn2nc(C)c(NC(=O)c3cc(C(N)=O)nc4cc(F)ccc34)c2C)on1` [Example 1532], the negative-log IC50 (pIC50) was 7.79.

Turning to `CCS(=O)(=O)N1CCC(Cn2nc(C)c(NC(=O)c3cc(C(F)(F)F)nc4ccc(Br)cc34)c2C)CC1` [Example 1533], the negative-log IC50 (pIC50) is 6.77.

In the case of `CCS(=O)(=O)N1CCC(Cn2nc(C)c(NC(=O)c3cc(C(N)=O)nc4cc(F)ccc34)c2C)CC1` [Example 1534], the negative-log IC50 (pIC50) was 7.71.

For the compound `CCc1nc(Cn2nc(C(F)(F)F)c(NC(=O)c3cc(C(N)=O)nc4ccccc34)c2C)no1` [Example 1535], the pIC50 is 7.65.

As to `CCc1noc(Cn2nc(C(F)(F)F)c(NC(=O)c3cc(C(N)=O)nc4ccccc34)c2C)n1` [Example 1536], the pIC50 is 7.10.

On to `CCc1noc(Cn2nc(C(F)(F)F)c(NC(=O)c3cc(C(N)=O)nc4cc(F)ccc34)c2C)n1` [Example 1537], for which the pIC50 was 6.73.

Regarding `Cc1cc(Cn2nc(C(F)(F)F)c(NC(=O)c3cc(C(N)=O)nc4ccccc34)c2C)no1` [Example 1538], the negative-log IC50 (pIC50) was 7.14.

In the case of `Cc1cc(Cn2nc(C(F)(F)F)c(NC(=O)c3cc(C(N)=O)nc4cc(F)ccc34)c2C)no1` [Example 1539], the negative-log IC50 (pIC50) is 7.33.

On to `Cc1c(NC(=O)c2cc(C(N)=O)nc3ccccc23)c(C(F)(F)F)nn1Cc1ncco1` [Example 1540], for which the pIC50 was 6.56.

For the compound `Cc1cc(Cn2nc(C)c(NC(=O)c3cc(C(N)=O)nc4cc(F)ccc34)c2C)no1` [Example 1541], the negative logarithm of the IC50 (pIC50) is 7.81.

Consider `Cc1cc(Cn2nc(C(F)(F)F)c(NC(=O)c3cc(C(N)=O)nc4cc(F)ccc34)c2C)on1` [Example 1542], for which the pIC50 is 7.07.

With `Cc1cc(Cn2nc(C(F)(F)F)c(NC(=O)c3cc(C(N)=O)nc4ccccc34)c2C)on1` [Example 1543], the negative-log IC50 (pIC50) is 6.95.

Turning to `CCc1noc(Cn2nc(C(F)(F)F)c(NC(=O)c3cc(C(N)=O)nc4cc(F)c(Cl)cc34)c2C)n1` [Example 1544], the negative-log IC50 (pIC50) was 7.80.

For `CCS(=O)(=O)N1CCC(Cn2nc(C(F)(F)F)c(NC(=O)c3cc(C(N)=O)nc4cc(F)ccc34)c2C)CC1` [Example 1545], the pIC50 was 7.37.

For `CCS(=O)(=O)N1CCC(Cn2nc(C(F)(F)F)c(NC(=O)c3cc(C(N)=O)nc4ccccc34)c2C)CC1` [Example 1546], the negative-log IC50 (pIC50) is 7.47.

For the compound `Cc1c(NC(=O)c2cc(C(N)=O)nc3cc(F)c(Cl)cc23)c(C(F)(F)F)nn1Cc1ncco1` [Example 1547], the negative-log IC50 (pIC50) was 7.62.

For the compound `CCc1nc(Cn2nc(C(F)(F)F)c(NC(=O)c3cc(C(N)=O)nc4cc(F)ccc34)c2C)no1` [Example 1548], the pIC50 was 7.58.

As to `Cc1c(NC(=O)c2cc(C(N)=O)nc3ccccc23)c(C(F)(F)F)nn1Cc1cc(C2CC2)on1` [Example 1549], the negative logarithm of the IC50 (pIC50) was 7.87.

Regarding `Cc1c(NC(=O)c2cc(C(N)=O)nc3cc(F)ccc23)c(C(F)(F)F)nn1Cc1cc(C2CC2)on1` [Example 1550], the negative logarithm of the IC50 (pIC50) is 7.46.

Consider `Cc1c(NC(=O)c2cc(C(N)=O)nc3cc(F)c(Cl)cc23)c(C(F)(F)F)nn1Cc1cc(C2CC2)on1` [Example 1551], for which the pIC50 is 7.95.

For `Cc1c(NC(=O)c2cc(C(N)=O)nc3ccccc23)c(C(F)(F)F)nn1Cc1cc(C(C)C)no1` [Example 1552], the negative-log IC50 (pIC50) is 6.71.

For `Cc1c(NC(=O)c2cc(C(N)=O)nc3cc(F)ccc23)c(C(F)(F)F)nn1Cc1cc(C(C)C)no1` [Example 1553], the pIC50 was 6.80.

For `Cc1c(NC(=O)c2cc(C(N)=O)nc3cc(F)c(Cl)cc23)c(C(F)(F)F)nn1Cc1cc(C(C)C)no1` [Example 1554], the negative-log IC50 (pIC50) is 6.94.

As to `CCc1cc(Cn2nc(C(F)(F)F)c(NC(=O)c3cc(C(N)=O)nc4ccccc34)c2C)on1` [Example 1555], the pIC50 was 7.74.

As to `CCc1cc(Cn2nc(C(F)(F)F)c(NC(=O)c3cc(C(N)=O)nc4cc(F)ccc34)c2C)on1` [Example 1556], the negative logarithm of the IC50 (pIC50) was 7.38.

Regarding `CNC(=O)c1nc(Cn2nc(C(F)(F)F)c(NC(=O)c3cc(C(N)=O)nc4ccccc34)c2C)no1` [Example 1557], the pIC50 is 7.27.

For the compound `CNC(=O)c1nc(Cn2nc(C(F)(F)F)c(NC(=O)c3cc(C(N)=O)nc4cc(F)ccc34)c2C)no1` [Example 1559], the negative-log IC50 (pIC50) was 7.14.

Take `Cc1cc(Cn2nc(C)c(NC(=O)c3cc(C(N)=O)nc4ccccc34)c2C)on1` [Example 1560]: the pIC50 is 7.40.

On to `Cc1cc(Cn2nc(C)c(NC(=O)c3cc(C(N)=O)nc4cc(F)ccc34)c2C)on1` [Example 1561], for which the pIC50 is 7.98.

Take `Cc1nn(Cc2cc(C(C)C)no2)c(C)c1NC(=O)c1cc(C(N)=O)nc2ccccc12` [Example 1562]: the pIC50 was 7.25.

Regarding `Cc1nn(Cc2cc(C(C)C)no2)c(C)c1NC(=O)c1cc(C(N)=O)nc2cc(F)ccc12` [Example 1563], the negative logarithm of the IC50 (pIC50) is 7.45.

As for `Cc1c(NC(=O)c2cc(C(=O)N3CCOCC3)nc3ccc(F)cc23)c(C(F)(F)F)nn1Cc1ccc(C#N)cc1` [Example 1564], the pIC50 was 6.95.

For `Cc1c(NC(=O)c2cc(C(N)=O)nc3cccc(O)c23)c(C(F)(F)F)nn1Cc1ccc(C#N)cc1` [Example 1565], the pIC50 is 7.68.

Turning to `Cc1nn(Cc2cc(C#N)no2)c(C)c1NC(=O)c1cc(C(N)=O)nc2cc(F)ccc12` [Example 1566], the negative-log IC50 (pIC50) is 7.85.
